Test results taken from US7737125B2, “LNA antagonists targeting the androgen receptor” (Enzon Pharamaceuticals, Inc., priority 2007, dated 2010).
Strand notation (5' to 3'): a small letter for the sugar, then the base; units joined by * are phosphorothioate-linked, units joined directly phosphodiester-linked; [ ] holds rarer units or linkages, { } end groups; capitals alone tell only the bases. l = locked nucleic acid (LNA); [5mC] = 5-methylcytosine; d = 2'-deoxy (DNA)

Columns and labels:
[1] = test system: human androgen receptor mRNA; experiment: AR mRNA knock-down in A549, 24 h post-transfection, 0.5-16 nM (qPCR); type: cell-based; conditions: 0.5, 1, 2, 4, 8 and 16 nM, 24 h post-transfection (FIG. 12)
Experimental: FIG. 12: AR mRNA in A549, 24 h post-transfection
(§1) Oligonucleotides were evaluated for their potential to knock down androgen receptor mRNA expression at concentrations of 0.5, 1, 2, 4, 8 and 16 nM (see FIG. 11). LNCaP prostate cancer cells and A549 lung cancer cells were seeded to a density of 150,000 cells per well in a 6-well plate the day prior to transfection. A549 cells were cultured in DMEM (Sigma)+10% fetal bovine serum (FBS)+2 mM Glutamax I+gentamicin (25 μg/ml). LNCaP cells were cultured in RPMI 1640 Medium (Sigma)+10% fetal bovine serum (FBS)+2 mM Glutamax I+gentamicin ([…]). On the following day, medium was removed followed by addition of 1.2 ml OptiMEM containing 5 μg/ml Lipofectamine2000 (Invitrogen). Cells were incubated for 7 min before adding 0.3 ml oligonucleotides diluted in OptiMEM. The final oligonucleotide concentrations were 0.5, 1, 2, 4, 8 and 16 nM. Cells were washed and serum-containing media was added. After oligomer treatment cells were allowed to recover for 20 hours before they were harvested for RNA analysis. The procedure for RNA isolation, cDNA synthesis and qPCR were as described in Examples 5, 6 and 7.

[2] = test system: Caspase 3/7 activity in A549 cells; experiment: Caspase 3/7 activity (Caspase-Glo 3/7) in A549 cells; type: cell-based, human; conditions: 4 nM and 16 nM; 14 h, 48 h and 72 h (FIG. 16)
Experimental: (§2) LNCaP prostate cancer cells and A549 lung cancer cells were seeded to a density of 150,000 cells per well in a 6-well plate the day prior to transfection. A549 cells were cultured in DMEM (Sigma)+10% fetal bovine serum (FBS)+2 mM Glutamax I+gentamicin (25 μg/ml) whereas LNCaP cells were cultured in RPMI 1640 Medium (Sigma)+10% fetal bovine serum CUBS)+2 mM Glutamax I+gentamicin (25 μg/ml). The next day medium was removed followed by addition of 1.2 ml OptiMEM containing 5 μg/ml Lipofectamine2000 (Invitrogen). Cells were incubated for 7 min before adding 0.3 ml oligonucleotides diluted in OptiMEM. The final oligonucleotide concentrations were 4 nM and 16 nM. After 4 hours of treatment, media was removed and cells were trypsinized and seeded to a density of 5000 cells per well in a white 96 well plate (Nunc) in 100 μl media. Caspase 3/7 activity was measured at the times indicated by adding 100 μl Caspase-Glo 3/7 assay (Promega). Caspase 3/7 activity was measured using a luminometer. The caspase 3/7 activities were measured at three different time points 14 h, 48 h and 72 h (See FIG. 15 and FIG. 16).

[3] = test system: LNCaP prostate cancer cells; experiment: Measurement of proliferating viable cells (MTS assay), LNCaP; type: cell-based, human; conditions: 4 nM and 16 nM, time course post-transfection (FIG. 14)
Experimental: (§3) LNCaP prostate cancer and A549 lung cancer cells were seeded to a density of 150,000 cells per well in a 6-well plate the day prior to transfection. A549 cells were cultured in DMEM (Sigma)+10% fetal bovine serum (FBS)+2 mM Glutamax I+gentamicin (25 μg/ml) whereas LNCaP cells were cultured in RPMI 1640 Medium (Sigma)+10% fetal bovine serum (FBS)+2 mM Glutamax I+gentamicin (25 μg/ml). On the following day, medium was removed followed by addition of 1.2 ml OptiMEM containing 5 μg/ml Lipofectamine2000 (Invitrogen). Cells were incubated for 7 min before adding 0.3 ml oligonucleotides diluted in OptiMEM. The final oligonucleotide concentrations were 4 nM and 16 nM. After 4 hours of treatment, media was removed and cells were trypsinized and seeded to a density of 5000 cells per well in a clear 96 well plate (Scientific Orange no. 1472030100) in 100 μl media. Viable cells were measured at the times indicated by adding 10 μl the tetrazolium compound [3-(4,5-[…])-5-(3-carboxymethoxyphenyl)-2-(4-sulfophenyl)-2H-tetrazolium, inner salt; MTS] and an electron coupling reagent (phenazine ethosulfate; PES) (CellTiter 96® AQueous One Solution Cell Proliferation Assay, Promega). Viable cells were measured at 490 nm in a Powerwave (Biotek Instruments). The OD490 nm measurements were plotted against time/h. (See FIG. 13 and FIG. 14).

[4] = test system: mouse androgen receptor mRNA; experiment: In vivo knock-down of AR mRNA expression in mouse liver (QPCR); conditions: nude mice, 100 mg/kg i.v. q3dx4, liver 24 h after last dosing, normalised to mouse GAPDH, relative to saline treated animals
Experimental: Nude mice were dosed i.v. q3dx4 with 100 mg/kg oligonucleotide (group size of 5 mice). The antisense oligonucleotides (SEQ ID:48, SEQ ID:51, SEQ ID:58, SEQ ID:63, SEQ ID:77) were dissolved in phosphate buffered saline. Animals were sacrificed 24 h after last dosing and liver tissue was sampled and stored in RNA later until RNA extraction and QPCR analysis. Total RNA was extracted and AR mRNA expression in liver samples was measured by QPCR as described in Example 7 using a mouse AR QPCR assay (cat. Mm01238475_m1, Applied Biosystems). Results were normalised to mouse GAPDH (cat. no. 4352339E, Applied Biosystems) and knock-own was quantitated relative to saline treated controls. The data in Table 4 are presented as percentage down-regulation relative to saline treated animals.

[5] = test system: Caspase 3/7 activity in LNCaP cells; experiment: Caspase 3/7 activity (Caspase-Glo 3/7) in LNCaP cells; type: cell-based, human; conditions: 4 nM and 16 nM; 14 h, 48 h and 72 h (FIG. 15)
Experimental: as §2

[6] = test system: human androgen receptor mRNA; experiment: AR mRNA knock-down in LNCaP, 24 h post-transfection, 0.5-16 nM (qPCR); type: cell-based; conditions: 0.5, 1, 2, 4, 8 and 16 nM, 24 h post-transfection (FIG. 11)
Experimental: FIG. 11: AR mRNA in LNCaP, 24 h post-transfection
as §1

[7] = test system: A549 lung cancer cells; experiment: Measurement of proliferating viable cells (MTS assay), A549; type: cell-based, human; conditions: 4 nM and 16 nM, time course post-transfection (FIG. 13)
Experimental: as §3

Row | Substance | Knock down of AR mRNA expression in lung cancer cell line A549 [1] | Caspase 3/7 activity in A549 cells [2] | Growth of LNCaP prostate cancer cells (viable cells, OD490 nm vs time) [3] | Liver (% KD) of AR mRNA expression ([4]; listed as SEQ ID: 58, 100 mg/kg) | Caspase 3/7 activity in LNCaP cells [5] | Knock down of AR mRNA expression in LNCaP prostate cancer cell line [6] | Growth of A549 lung cancer cells (viable cells, OD490 nm vs time) [7] | Liver (% KD) of AR mRNA expression ([4]; listed as SEQ ID: 77, 100 mg/kg)
1 | 5′-AsCsCsasasgstststscststscsAsGsC-3′ (antisense lA*l[5mC]*l[5mC]*dA*dA*dG*dT*dT*dT*dC*dT*dT*dC*lA*lG*l[5mC]) [SEQ ID NO: 58, LNA gapmer antisense oligonucleotide] | potent in knocking down AR mRNA expression | induce caspase 3/7 activity | inhibit growth | 95.2 +/− 1.0% | induce caspase 3/7 activity | potent in knocking down AR mRNA expression | inhibit growth | 
2 | 5′-CsCsCsasasgsgscsascstsgscsAsGsA-3′ (antisense l[5mC]*l[5mC]*l[5mC]*dA*dA*dG*dG*dC*dA*dC*dT*dG*dC*lA*lG*lA) [SEQ ID NO: 77, LNA gapmer antisense oligonucleotide] | potent in knocking down AR mRNA expression | induce caspase 3/7 activity | inhibit growth |  | induce caspase 3/7 activity | potent in knocking down AR mRNA expression | inhibit growth | 91.9 +/− 3.9%
